Test results reported in paper PMC9573943, “Contribution of the 12–17 hydrophobic region of islet amyloid polypeptide in self-assembly and cytotoxicity” (Frontiers in Molecular Biosciences, 2022).
Bridge positions count the residues as written; N and C are the ends. Ends that are not written are not given here.

Experiments:
INS-1E cells [1] = assay: Cell viability by resazurin reduction; type: cell-based, Rat; conditions: 24 h, at least five assays; for Cell viability: 50 μM freshly dissolved peptide, relative to vehicle-treated cells; for Cytotoxicity compared with unmodified IAPP, in words: freshly dissolved peptide up to 50 μM
Description: (§1) Rat INS-1E cells were cultured in treated black-wall clear-bottom 96-well plates at a density of 25,000 cell/well in RPMI-1640 medium supplemented with 10% FBS, 2 mM L-glutamine, 100 U/ml penicillin, 100 μg/ml streptomycin, 10 mM HEPES, 1 mM sodium pyruvate and 50 μM β-mercaptoethanol. After 48 h of incubation at 37°C in 5% CO2, cells were treated with 50 μL of peptide freshly dissolved in 20 mM Tris-HCl, pH 7.4. […] Cell viability (%) was calculated from the ratio of the fluorescence of the treated cells to the vehicle-treated cells. Data of at least five assays performed with different peptide lots were averaged and expressed as the mean ± S.D. Statistical analysis was performed using Student’s t test, and statistically significant difference was established at (*) p < 0.05; (**) p < 0.005; (***) p < 0.0005. For Live/Dead viability assay, cells were plated in 12-well plates at density of 250,000 cell/well for 48 h before treatment with 25 μM peptide.

INS-1E cells [2] = assay: Live/Dead viability assay (calcein-AM / ethidium homodimer-1, fluorescence microscopy); type: cell-based, Rat; conditions: 25 μM freshly solubilized peptide, 24 h, calcein-AM (green, live) and ethidium homodimer-1 (red, dead)
Description: as §1

[3] = Lipid membrane leakage (calcein-loaded LUVs); conditions: 25 μM peptide, 500 μM phospholipids; for Maximum membrane leakage (calcein fluorescence, % of that with Triton X-100): LUVs DOPC:DOPG 9:1, 20 mM Tris-HCl, 150 mM NaCl, pH 7.4, read every 10 min over 24 h, IAPP value reached after 10 h, at least four assays
Description: Large unilamellar vesicles (LUVs) were assembled from 1,2-Dioleoyl-sn-glycero-3-phosphocholine (DOPC) and 2-dioleoyl-sn-glycero-3-phospho-(1′-rac-glycerol) (DOPG) at a 9:1 M ratio (DOPC:DOPG). Lipids were solubilized in 100% chloroform, which was then evaporated. […] The lipid mixture was freeze-thawed five times before being extruded through a 100 nm membrane for 20 cycles. Nonencapsulated calcein was removed by gel filtration using a Sephadex G25 fine resin and 20 mM Tris-HCl, 150 mM NaCl, pH 7.4, as elution buffer. Final lipid concentration was determined by a colorimetric assay ([Babych et al., 2021]). Lyophilized peptides were solubilized in 20 mM Tris-HCl, 150 mM NaCl, pH 7.4, at 50 μM prior to dilution into calcein-LUVs, to reach 25 μM peptide and 500 μM phospholipids. Fluorescence was monitored in sealed black-wall, clear-bottom 96-well non-binding surface plates with 100 μL/well. […] 100% leakage (Fmax) was determined with 0.2% Triton X-100 and LUV leakage was reported using:
Membrane leakage (%) = (F−F baseline)/(F max−F baseline)
Data of at least four assays with different peptide lots were averaged and expressed as the mean ± S.D. Statistical analysis was performed using Student’s t test, and statistically significant difference was established at (*) p < 0.05; (**) p < 0.005; (***) p < 0.0005.

[4] = Peptide self-assembly under fully quiescent conditions (CD, ThT and ANS fluorescence, TEM, AFM); type: physicochemical; conditions: 50 μM peptide; for Assemblies observed by TEM after 48 h incubation: negative stain TEM; for ThT fluorescence of incubated peptide, in words: diluted to 25 μM with 40 μM ThT; for Incubation time at which the random coil to β-sheet conformational transition is seen (far-UV CD): microtubes, diluted to 25 μM for CD
Description: Solutions were prepared by dissolving the peptide at a concentration of 50 μM in 20 mM Tris-HCl, pH 7.4, and were incubated at room temperature without agitation in 1.5 ml Eppendorf microtubes. For IAPP12-17, the lyophilized peptide was dissolved in 20 mM acetate pH 6.5 in the presence of 3% DMSO, or HFIP, at a final concentration of 500 μM and the peptide solution was incubated at 37 °C under constant rotational agitation.
At the indicating time of incubation, peptide solutions were diluted to 25 μM in presence of 40 μM ThT, or 25 μM 8-anilino-1-naphthalenesulfonic acid (ANS). Fluorescence was measured in 10-mm pathlength microcells using a PTI QuantaMaster spectrofluorometer. For ThT, excitation was set at 440 nm, and the emission spectrum from 450 to 550 nm was recorded. For ANS, the excitation was set at 355 nm, and the emission scan was recorded from 385 to 585 nm.
After incubation, peptide solutions were diluted in water to 25 μM and incorporated into a 2-mm path length quartz cell. For IAPP12-17, the solution was diluted to 150 μM. Far-UV CD spectra were recorded from 190 to 260 nm using a Jasco J-815 CD spectropolarimeter at 25°C. The wavelength step was set at 0.5 nm with an average time of 10 s per scan at each wavelength. Spectra were background-subtracted with buffer solution. Raw data were converted to mean residue ellipticity (MRE): MRE=Mean residue weight (g/mol)X CD signal (deg)/10 X pathlength (cm) X peptide concentration (g/mL)
After incubation, peptide solutions were diluted to 10 μM, or 100 μΜ for IAPP12-17, before being applied on glow-discharged carbon films on 300-mesh copper grids. Samples were adsorbed and negatively stained with 1.5% uranyl formate for 45 s. Images were recorded using a FEI Tecnai G2 Spirit Twin microscope operating at 120 kV and equipped with a Gatan Ultrascan scan 4,000 4k × 4k CCD camera system.
After incubation, peptide solutions were diluted in 1% acetic acid to a concentration of 7.5 μΜ. […] Images were recorded using Veeco/Bruker multimode AFM instrument using ScanAsyst-air mode with a silicon tip (2–12 nm tip radius, 0.4 N/m force) on a nitride lever. Images were taken at 0.977 Hz and 512 scan/min.

[5] = Kinetics of amyloid formation monitored by ThT fluorescence; type: physicochemical; conditions: 40 μM ThT, 20 mM Tris-HCl pH 7.4, 25°C, no agitation; for Lag time of amyloid formation: 25 μM peptide, nonbinding surface 96-well plate, read every 10 min, lag time = T50 - 2/k, mean ± S.D. of at least six assays
Description: Aggregation mixtures were prepared by dissolving the lyophilized peptide at a concentration of 50 μM in 20 mM Tris-HCl, pH 7.4. Assays were performed at 25°C without stirring in sealed black-wall clear-bottom 96-well nonbinding surface plates with 100 μL/well. Final peptide concentrations were 12.5 and 25 μM, and thioflavin T (ThT) concentration was fixed at 40 μM. Fluorescence was measured every 10 min (excitation: 440 nm, emission: 485 nm) and data from triplicate wells were averaged, corrected by subtracting the blank control, and plotted as ThT fluorescence vs. time. Data were normalized with maximum ThT fluorescence intensity obtained for unmodified IAPP. Data were fitted to a sigmoidal Boltzmann model: Y=Yo+(Ymax−Yo)/1+e^−(T−T50)/ K where T 50 is the time required to reach half of the maximum fluorescence intensity, k is the apparent first-order constant, and Y max and Y 0 are the maximum and initial ThT fluorescence values. Lag time corresponds to T50 - 2/k. Data of at least six assays performed with different peptide lots were averaged and expressed as the mean ± S.D. Statistical analysis was performed using Student’s t test, and statistically significant difference between IAPP and analogs was established at (*) p < 0.05; (**) p < 0.005; (***) p < 0.0005.

[6] = 20 mM Tris-HCl pH 7.4, quiescent
[7] = 20 mM Tris-HCl pH 7.4, room temperature, fully quiescent

CC[C@H](C)[C@H](NC(=O)[C@H](C)NC(=O)CNC(=O)[C@H](Cc1ccccc1)NC(=O)[C@H](CC(N)=O)NC(=O)[C@H](CC(N)=O)NC(=O)[C@H](CO)NC(=O)[C@H](CO)NC(=O)[C@H](Cc1c[nH]cn1)NC(=O)[C@@H](NC(=O)[C@H](CC(C)C)NC(=O)[C@H](Cc1ccccc1)NC(=O)[C@H](C)NC(=O)[C@H](C)NC(=O)[C@H](CC(C)C)NC(=O)[C@H](CCCNC(=N)N)NC(=O)[C@H](CCC(N)=O)NC(=O)[C@@H](NC(=O)[C@H](C)NC(=O)[C@@H]1CSSC[C@H](NC(=O)[C@@H](N)CCCCN)C(=O)N[C@@H](CC(N)=O)C(=O)N[C@@H]([C@@H](C)O)C(=O)N[C@@H](C)C(=O)N[C@@H]([C@@H](C)O)C(=O)N1)[C@@H](C)O)C(C)C)C(=O)N[C@@H](CC(C)C)C(=O)N[C@@H](CO)C(=O)N[C@@H](CO)C(=O)N[C@H](C(=O)N[C@@H](CC(N)=O)C(=O)N[C@H](C(=O)NCC(=O)N[C@@H](CO)C(=O)N[C@@H](CC(N)=O)C(=O)N[C@H](C(=O)N[C@@H](Cc1ccc(O)cc1)C(N)=O)[C@@H](C)O)C(C)C)[C@@H](C)O [N14A]
Cell viability (INS-1E cells [1]): 50% | Cytotoxicity compared with unmodified IAPP, in words (INS-1E cells [1]): reduced IAPP toxicity | Cell death in Live/Dead assay, in words (INS-1E cells [2]): decreased toxicity compared to unmodified IAPP | Maximum membrane leakage (calcein fluorescence, % of that with Triton X-100) [3]: 50% | Assemblies observed by TEM after 48 h incubation [4, 6]: dense network of thin fibrils | ANS fluorescence of incubated peptide, in words ([4]; 20 mM Tris-HCl pH 7.4, quiescent, diluted to 25 μM with 25 μM ANS): high ANS signal | ThT fluorescence of incubated peptide, in words [4, 6]: low ThT fluorescence | Incubation time at which the random coil to β-sheet conformational transition is seen (far-UV CD) [4, 7]: 48 h | Secondary conformation / conformational transition over incubation (far-UV CD), in words ([4]; 20 mM Tris-HCl pH 7.4, room temperature, fully quiescent, up to 7 days): helical-like conformation with two minima at 206 and 222 nm between 2 and 24 h incubation | Assemblies observed by AFM after 24 h incubation ([4]; 20 mM Tris-HCl pH 7.4, room temperature, no agitation, 24 h): only poorly defined fibrils

CC[C@H](C)[C@H](NC(=O)[C@H](C)NC(=O)CNC(=O)[C@H](Cc1ccccc1)NC(=O)[C@H](CC(N)=O)NC(=O)[C@H](CC(N)=O)NC(=O)[C@H](CO)NC(=O)[C@H](CO)NC(=O)[C@H](Cc1c[nH]cn1)NC(=O)[C@@H](NC(=O)[C@H](CC(C)C)NC(=O)[C@H](Cc1ccccc1)NC(=O)[C@H](CC(N)=O)NC(=O)[C@H](C)NC(=O)[C@H](CC(C)C)NC(=O)[C@H](CCCNC(=N)N)NC(=O)[C@H](CCC(N)=O)NC(=O)[C@@H](NC(=O)[C@H](C)NC(=O)[C@@H]1CSSC[C@H](NC(=O)[C@@H](N)CCCCN)C(=O)N[C@@H](CC(N)=O)C(=O)N[C@@H]([C@@H](C)O)C(=O)N[C@@H](C)C(=O)N[C@@H]([C@@H](C)O)C(=O)N1)[C@@H](C)O)C(C)C)C(=O)N[C@@H](CC(C)C)C(=O)N[C@@H](CO)C(=O)N[C@@H](CO)C(=O)N[C@H](C(=O)N[C@@H](CC(N)=O)C(=O)N[C@H](C(=O)NCC(=O)N[C@@H](CO)C(=O)N[C@@H](CC(N)=O)C(=O)N[C@H](C(=O)N[C@@H](Cc1ccc(O)cc1)C(N)=O)[C@@H](C)O)C(C)C)[C@@H](C)O [IAPP, islet amyloid polypeptide]
Cell viability (INS-1E cells [1]): less than 10% | Cytotoxicity compared with unmodified IAPP, in words (INS-1E cells [1]): concentration-dependent decrease of metabolic activity | Cell death in Live/Dead assay, in words (INS-1E cells [2]): sharp increase in the number of red cells and a decrease of green cells | Maximum membrane leakage (calcein fluorescence, % of that with Triton X-100) [3]: 17% | Incubation time at which membrane leakage starts ([3]; LUVs DOPC:DOPG 9:1, pH 7.4): 5 h | Lag time of amyloid formation [5]: 3.9 ± 1.2 h | Assemblies observed by TEM after 48 h incubation [4, 6]: prototypical fibrils | ThT fluorescence of incubated peptide, in words [4, 6]: increase of ThT and ANS fluorescence | Incubation time at which the random coil to β-sheet conformational transition is seen (far-UV CD) [4, 7]: 24 h

F15A: full-length IAPP with Phe15 replaced by alanine (KCNTATCATQRLANALVHSSNNFGAILSSTNVGSNTY; disulfide 2-7; ends not checked; UniProt P10997 34-70, looked up, variant F15A)
Cytotoxicity compared with unmodified IAPP, in words (INS-1E cells [1]): reduced IAPP toxicity | Cell death in Live/Dead assay, in words (INS-1E cells [2]): decreased toxicity compared to unmodified IAPP | Maximum membrane leakage (calcein fluorescence, % of that with Triton X-100) [3]: 55% | Increase of ThT fluorescence signal ([5]; 12.5 μM peptide): no increase of ThT fluorescence signal could be detected | Lag time of amyloid formation [5]: 14.2 ± 2.2 h | Assemblies observed by TEM after 48 h incubation [4, 6]: no fibrillar aggregates could be observed | Overall effect of the substitution on amyloid formation, in words ([4]; 20 mM Tris-HCl pH 7.4, quiescent, CD, ThT, ANS, TEM, compared with unmodified IAPP): delayed the appearance of ThT and ANS-positive signals, and β-sheet-rich assemblies | Assemblies observed by AFM after 96 h incubation ([4]; 20 mM Tris-HCl pH 7.4, room temperature, no agitation, 96 h): only small aggregates | Assemblies observed by TEM after 168 h (7 days) incubation ([4]; 20 mM Tris-HCl pH 7.4, room temperature, no agitation, 168 h): amyloid fibrils could be observed
